Measured values published in patent US20210395313A1, “PEPTIDE PAC1 ANTAGONISTS” (AMGEN INC., priority 2017, published 2021).
Where a SMILES comes first, the peptide text is derived from it. Bridges are numbered along the chain shown (N, C = ends).

Experiments:
[1] = molecular target: T1, rat PAC1 receptor (Rattus norvegicus, UniProt P32215); assay: LANCE Ultra cAMP accumulation antagonist assay in RG-2 cells; format: cell-based;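 further: RG-2 rat glioma cells endogenously expressing PAC1, test peptide preincubated 30 min, then PAC1 agonist added at its EC80 for 15 min, cAMP accumulation read by LANCE Ultra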
T1 construct: SHSY-5Y (human neuroblastoma cell line) and RG-2 (rat glioma cell line) cells endogenously express human and rat PAC1 receptors, respectively; endogenous in cells; host or cells: RG-2 rat glioma cells
T1 sequence (P32215 20-523): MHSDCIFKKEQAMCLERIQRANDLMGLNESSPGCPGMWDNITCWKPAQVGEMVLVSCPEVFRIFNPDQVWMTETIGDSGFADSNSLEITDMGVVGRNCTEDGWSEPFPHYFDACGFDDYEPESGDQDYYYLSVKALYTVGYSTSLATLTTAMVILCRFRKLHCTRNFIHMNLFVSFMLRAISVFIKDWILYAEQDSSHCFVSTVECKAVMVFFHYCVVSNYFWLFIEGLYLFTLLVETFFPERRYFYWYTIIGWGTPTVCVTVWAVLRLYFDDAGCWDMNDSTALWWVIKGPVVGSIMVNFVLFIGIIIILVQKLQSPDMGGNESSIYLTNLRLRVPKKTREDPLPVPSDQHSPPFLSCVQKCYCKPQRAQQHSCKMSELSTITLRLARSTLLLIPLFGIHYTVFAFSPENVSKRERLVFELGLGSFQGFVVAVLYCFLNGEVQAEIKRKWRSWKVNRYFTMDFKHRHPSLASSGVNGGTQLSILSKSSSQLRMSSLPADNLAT
Procedure: In order to determine the potency of peptide antagonists at the PAC1 receptor, functional cAMP accumulation assays using LANCE Ultra cAMP assay kit to measure the agonist and antagonist activity of PAC1 peptides were used. SHSY-5Y (human neuroblastoma cell line) and RG-2 (rat glioma cell line) cells endogenously express human and rat PAC1 receptors, respectively. Agonist activity of PAC1 peptides was tested by incubating with SHSY-5Y at 2,000 cells per well or RG-2 at 5,000 cells per well for 15 minutes at room temperature. PAC1 receptor agonist PACAP38 or maxadilan was included as a positive control. The reaction was stopped by adding detection mixture, europium (Eu) chelate-labeled cAMP tracer and cAMP-specific monoclonal antibodies labeled with the ULight™ dye, to all wells followed by a 60-minute incubation at room temperature. The assay plates were then read on an EnVision instrument at an emission wavelength of 665 and 615 nm and data were analyzed using Genedata Screener or GraphPad Prism software. A similar procedure was used in the antagonist assays by using a fixed concentration of PAC1 agonist. The concentrations of agonists were chosen based on their ECK) values at PAC1 receptors in SHSY-5Y or RG-2 cells. SHSY-5Y or RG-2 cells were added into 96-well half-area white plates. Serially diluted PAC1 peptides at ten concentrations were added and incubated for 30 minutes at room temperature. PAC1 agonist at EC80 concentration was then added and further incubated for 15 minutes at room temperature. The reaction was stopped by adding detection mixture to all wells followed by a 60-minute incubation at room temperature. The assay plates were read and analyzed the same way as that of agonist assay. Cells, agonists, and PAC1 peptides were prepared in freshly made assay buffer (F-12, 0.5 mM IBMX, 0.1 or 0.4% BSA (pH 7.4)). Detection mixture was made by mixing a 1/50 dilution of the Eu-cAMP tracer stock solution in cAMP Detection Buffer and a 1/150 dilution of the ULight-anti-cAMP stock solution in cAMP Detection Buffer. Europium (Eu) chelate-labeled cAMP tracer, cAMP-specific monoclonal antibodies labeled with the ULight™ dye, BSA, and detection buffer were provided in LANCE Ultra cAMP Kit from PerkinElmer

[2] = molecular target: T2, human PAC1 receptor (Homo sapiens, UniProt P41586); assay: LANCE Ultra cAMP accumulation antagonist assay in SHSY-5Y cells; format: cell-based;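 further: inhibition of cAMP accumulation evoked by PAC1 agonist at its EC80 in SHSY-5Y cells endogenously expressing receptor, 30 min preincubation then 15 min agonist, TR-FRET readout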
T2 construct: SHSY-5Y (human neuroblastoma cell line) and RG-2 (rat glioma cell line) cells endogenously express human and rat PAC1 receptors, respectively; endogenous in cells; host or cells: SHSY-5Y human neuroblastoma cells
T2 sequence (P41586 21-468): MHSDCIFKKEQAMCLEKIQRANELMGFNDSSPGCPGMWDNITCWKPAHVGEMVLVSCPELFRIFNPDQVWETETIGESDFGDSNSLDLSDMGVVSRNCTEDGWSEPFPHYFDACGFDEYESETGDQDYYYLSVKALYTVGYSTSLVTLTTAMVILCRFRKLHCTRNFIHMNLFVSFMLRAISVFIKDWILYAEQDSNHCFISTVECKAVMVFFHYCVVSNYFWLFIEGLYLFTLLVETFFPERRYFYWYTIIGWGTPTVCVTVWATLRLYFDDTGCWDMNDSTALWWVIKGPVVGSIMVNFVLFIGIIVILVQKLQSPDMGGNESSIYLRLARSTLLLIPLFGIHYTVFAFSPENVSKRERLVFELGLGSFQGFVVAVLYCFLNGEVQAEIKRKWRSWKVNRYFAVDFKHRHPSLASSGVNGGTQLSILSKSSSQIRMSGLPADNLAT

Structure (SMILES)	IC50 [1] [nM]	IC50 [2] [nM]
CC[C@H](C)[C@H](NC(=O)[C@H](C)NC(=O)[C@H](CCCCN)NC(=O)[C@H](CCCNC(=N)N)NC(=O)[C@H](Cc1ccccc1)NC(=O)[C@H](CCC(N)=O)NC(=O)[C@@H]1CSSC[C@H](N)C(=O)N[C@@H](CC(=O)O)C(=O)N[C@@H](C)C(=O)N[C@@H]([C@@H](C)O)C(=O)N1)C(=O)N[C@@H](CC(=O)O)C(=O)N[C@@H](CC(=O)O)C(=O)N[C@H]1CSSC[C@@H](C(=O)N[C@@H](CCSC)C(=O)N[C@@H](CCCCN)C(=O)N[C@@H](CCC(N)=O)C(=O)N[C@@H](CCCCN)C(=O)N[C@@H](CCCCN)C(=O)N[C@@H](CCCCN)C(=O)N[C@@H](CCC(=O)O)C(=O)N[C@@H](Cc2ccccc2)C(=O)N[C@@H](CCCCN)C(=O)N[C@@H](C)C(=O)NCC(=O)N[C@@H](Cc2ccc(O)cc2)C(=O)O)NC(=O)[C@H](C)NC(=O)[C@H](CCCCN)NC(=O)[C@H](Cc2ccccc2)NC(=O)[C@H](C(C)C)NC(=O)[C@H](CO)NC(=O)[C@H](CO)NC(=O)[C@H](Cc2c[nH]cn2)NC(=O)[C@H](Cc2ccc(O)cc2)NC(=O)[C@H](C)NC(=O)[C@H](CCC(N)=O)NC(=O)[C@H](CCCCN)NC(=O)[C@H](C)NC1=O [compound 30] (H-CDATCQFRKAIDDCAKQAYHSSVFKACMKQKKKEFKAGY-OH; disulfide 1-5, 14-27)	0.01 to 1	0.01 to 1
C#CC[C@@H]1NC(=O)[C@H](CCC(N)=O)NC(=O)[C@H](CCCCN)NC(=O)[C@H](CCC(N)=O)NC(=O)[C@@H](NC(=O)[C@H](CC(=O)O)NC(=O)[C@H](CC(=O)O)NC(=O)[C@@H](NC(=O)[C@H](C)NC(=O)[C@H](CCCCN)NC(=O)[C@H](CCCNC(=N)N)NC(=O)[C@H](Cc2ccccc2)NC(=O)[C@H](CCC(N)=O)NC(=O)[C@@H]2CSSC[C@H](N)C(=O)N[C@@H](CC(=O)O)C(=O)N[C@@H](C)C(=O)N[C@@H]([C@@H](C)O)C(=O)N2)[C@@H](C)CC)CSSC[C@@H](C(=O)N[C@@H](CCSC)C(=O)N[C@@H](CCCCN)C(=O)N[C@@H](CCC(N)=O)C(=O)N[C@@H](CCCCN)C(=O)N[C@@H](CCCCN)C(=O)N[C@@H](CCCCN)C(=O)N[C@@H](CCC(=O)O)C(=O)N[C@@H](Cc2ccccc2)C(=O)N[C@@H](CCCCN)C(=O)N[C@@H](C)C(=O)NCC(N)=O)NC(=O)[C@H](C)NC(=O)[C@H](CCCCN)NC(=O)[C@H](Cc2ccccc2)NC(=O)[C@H](C(C)C)NC(=O)[C@H](CO)NC(=O)CNC(=O)[C@@H]2CCCN2C(=O)[C@H](C(C)C)NC(=O)[C@H](CC(N)=O)NC(=O)[C@H](CO)NC(=O)[C@H](Cc2c[nH]cn2)NC(=O)[C@H](Cc2c[nH]cn2)NC1=O [compound 32]	0.01 to 1	0.01 to 1
CC[C@H](C)[C@H](NC(=O)[C@H](C)NC(=O)[C@H](CCCCN)NC(=O)[C@H](CCCNC(=N)N)NC(=O)[C@H](Cc1ccccc1)NC(=O)[C@H](CCC(N)=O)NC(=O)[C@@H]1CSSC[C@H](N)C(=O)N[C@@H](CC(=O)O)C(=O)N[C@@H](C)C(=O)N[C@@H]([C@@H](C)O)C(=O)N1)C(=O)N[C@@H](CC(=O)O)C(=O)N[C@@H](CC(=O)O)C(=O)N[C@H]1CSSC[C@@H](C(=O)N[C@@H](CCSC)C(=O)N[C@@H](CCCCN)C(=O)N[C@@H](CCC(N)=O)C(=O)N[C@@H](CCCCN)C(=O)N[C@@H](CCCCN)C(=O)N[C@@H](CCCCN)C(=O)N[C@@H](CCC(=O)O)C(=O)N[C@@H](Cc2ccccc2)C(=O)N[C@@H](CCCCN)C(=O)N[C@@H](C)C(=O)NCC(=O)N[C@@H](Cc2c[nH]cn2)C(=O)O)NC(=O)[C@H](C)NC(=O)[C@H](CCCCN)NC(=O)[C@H](Cc2ccccc2)NC(=O)[C@H](C(C)C)NC(=O)[C@H](CO)NC(=O)[C@H](CO)NC(=O)[C@H](Cc2c[nH]cn2)NC(=O)[C@H](Cc2ccc(O)cc2)NC(=O)[C@H](C)NC(=O)[C@H](CCC(N)=O)NC(=O)[C@H](CCCNC(=N)N)NC(=O)[C@H](C)NC1=O [compound 35] (H-CDATCQFRKAIDDCARQAYHSSVFKACMKQKKKEFKAGH-OH; disulfide 1-5, 14-27)	0.01 to 1	0.01 to 1
CC[C@H](C)[C@H](NC(=O)[C@H](C)NC(=O)[C@H](CCCCN)NC(=O)[C@H](CCCNC(=N)N)NC(=O)[C@H](Cc1ccccc1)NC(=O)[C@H](CCC(N)=O)NC(=O)[C@@H]1CSSC[C@H](N)C(=O)N[C@@H](CC(=O)O)C(=O)N[C@@H](C)C(=O)N[C@@H]([C@@H](C)O)C(=O)N1)C(=O)N[C@@H](CC(=O)O)C(=O)N[C@@H](CC(=O)O)C(=O)N[C@H]1CSSC[C@@H](C(=O)N[C@@H](CCSC)C(=O)N[C@@H](CCCCN)C(=O)N[C@@H](CCC(N)=O)C(=O)N[C@@H](CCCCN)C(=O)N[C@@H](CCCCN)C(=O)N[C@@H](CCCCN)C(=O)N[C@@H](CCC(=O)O)C(=O)N[C@@H](Cc2ccccc2)C(=O)N[C@@H](CCCCN)C(=O)N[C@@H](C)C(=O)NCC(=O)N[C@@H](Cc2c[nH]cn2)C(=O)O)NC(=O)[C@H](C)NC(=O)[C@H](CCCCN)NC(=O)[C@H](Cc2ccccc2)NC(=O)[C@H](C(C)C)NC(=O)[C@H](CO)NC(=O)[C@H](CO)NC(=O)[C@H](Cc2c[nH]cn2)NC(=O)[C@H](Cc2c[nH]cn2)NC(=O)[C@H](C)NC(=O)[C@H](CCC(N)=O)NC(=O)[C@H](CCCNC(=N)N)NC(=O)[C@H](C)NC1=O [compound 36] (H-CDATCQFRKAIDDCARQAHHSSVFKACMKQKKKEFKAGH-OH; disulfide 1-5, 14-27)	0.01 to 1	0.01 to 1
CC[C@H](C)[C@H](NC(=O)[C@H](C)NC(=O)[C@H](CCCCN)NC(=O)[C@H](CCCNC(=N)N)NC(=O)[C@H](Cc1ccccc1)NC(=O)[C@H](CCC(N)=O)NC(=O)[C@@H]1CSSC[C@H](N)C(=O)N[C@@H](CC(=O)O)C(=O)N[C@@H](C)C(=O)N[C@@H]([C@@H](C)O)C(=O)N1)C(=O)N[C@@H](CC(=O)O)C(=O)N[C@@H](CC(=O)O)C(=O)N[C@H]1CSSC[C@@H](C(=O)N[C@@H](CCSC)C(=O)N[C@@H](CCCCN)C(=O)N[C@@H](CCC(N)=O)C(=O)N[C@@H](CCCCN)C(=O)N[C@@H](CCCCN)C(=O)N[C@@H](CCCCN)C(=O)N[C@@H](CCC(=O)O)C(=O)N[C@@H](Cc2ccccc2)C(=O)N[C@@H](CCCCN)C(=O)N[C@@H](C)C(=O)NCC(=O)N[C@@H](Cc2ccc(O)cc2)C(=O)O)NC(=O)[C@H](C)NC(=O)[C@H](CCCCN)NC(=O)[C@H](Cc2ccccc2)NC(=O)[C@H](C(C)C)NC(=O)[C@H](CO)NC(=O)[C@H](CO)NC(=O)[C@H](Cc2c[nH]cn2)NC(=O)[C@H](C)NC(=O)[C@H](CCC(N)=O)NC(=O)[C@H](CCCCN)NC(=O)[C@H](C)NC1=O [compound 37] (H-CDATCQFRKAIDDCAKQAHSSVFKACMKQKKKEFKAGY-OH; disulfide 1-5, 14-26)	0.01 to 1	1 to 100
CC[C@H](C)[C@H](NC(=O)[C@H](C)NC(=O)[C@H](CCCCN)NC(=O)[C@H](CCCNC(=N)N)NC(=O)[C@H](Cc1ccccc1)NC(=O)[C@H](CCC(N)=O)NC(=O)[C@@H]1CSSC[C@H](N)C(=O)N[C@@H](CC(=O)O)C(=O)N[C@@H](C)C(=O)N[C@@H]([C@@H](C)O)C(=O)N1)C(=O)N[C@@H](CC(=O)O)C(=O)N[C@@H](CC(=O)O)C(=O)N[C@H]1CSSC[C@@H](C(=O)N[C@@H](CCSC)C(=O)N[C@@H](CCCCN)C(=O)N[C@@H](CCC(N)=O)C(=O)N[C@@H](CCCCN)C(=O)N[C@@H](CCCCN)C(=O)N[C@@H](CCCCN)C(=O)N[C@@H](CCC(=O)O)C(=O)N[C@@H](Cc2c[nH]c3ccccc23)C(=O)N[C@@H](CCCCN)C(=O)N[C@@H](C)C(=O)NCC(N)=O)NC(=O)[C@H](C)NC(=O)[C@H](CCCCN)NC(=O)[C@H](Cc2ccccc2)NC(=O)[C@H](C(C)C)NC(=O)[C@H](CO)NC(=O)[C@H](CO)NC(=O)[C@H](Cc2c[nH]cn2)NC(=O)[C@H](Cc2c[nH]c3ccccc23)NC(=O)[C@H](CO)NC(=O)[C@H](CCCNC(=N)N)NC(=O)[C@H](Cc2ccc(O)cc2)NC(=O)[C@H](Cc2ccc(O)cc2)NC1=O [compound 61] (H-CDATCQFRKAIDDCYYRSWHSSVFKACMKQKKKEWKAG-NH2; disulfide 1-5, 14-27)	0.01 to 1	0.01 to 1
